# Test results taken from BindingDB's records for doi:10.1021/jm00079a004 (National Institute of Diabetes and Digestive and Kidney …, 1992).
# Target: Sigma non-opioid intracellular receptor 1 (Cavia porcellus)
# Assay: Displacement of [3H]-(+) -3PPP from sigma receptor in guinea pig brain membranes
row,SMILES,Ki [nM]
1,CN(CCCN1CCCC1)CCc1ccc(Cl)c(Cl)c1,1.8
2,C=CCN(CCc1ccc(Cl)c(Cl)c1)CCN1CCCC1,1.4
3,CN(CCc1ccc2ccccc2c1)CCN1CCCC1,2.1
4,CC(CN(C)CCc1ccc(Cl)c(Cl)c1)N(C)C (stereo unspecified),1.5
5,CNCCN(C)CCc1ccc(Cl)c(Cl)c1,5.8
6,CN(C)CCNCCc1ccc(Cl)c(Cl)c1,20
7,CN(CCc1ccccc1)CCN1CCCC1,7.4
8,CCN(CCc1ccc(Cl)c(Cl)c1)CCN1CCCC1,0.51
9,CCN(CC)CCN(C)CCc1ccc(Cl)c(Cl)c1,0.73
10,CN(CCc1ccc(Cl)cc1)CCN1CCCC1,1.5
11,CN(CCN1CCCC1)Cc1ccc(Cl)c(Cl)c1,0.38
